In ChEMBL document CHEMBL6078630, “Design, synthesis, and bioactivity investigation of novel cyclic lipopeptide antibiotics targeting top-priority multidrug-resistant gram-negative bacteria” (Eur J Med Chem, 2024):
≈ marks a conversion by molar mass, not a printed value. Bridge positions count the residues as written; N and C are the ends. Square brackets hold non-standard residues; d marks the D form. Peptide text beside a SMILES is read from it. * marks the point of attachment. Heptanoyl(6-Me) = CC(C)CCCCC(=O)*; dNle = CCCC[C@@H](N)C(=O)O; X1 = CC[C@H](C)CCCCC(=O)*; dDab = NCC[C@@H](N)C(=O)O; Octanoyl = CCCCCCCC(=O)*; Orn = NCCC[C@H](N)C(=O)O; Dab = NCC[C@H](N)C(=O)O

Experiments:
Acinetobacter baumannii [1] = assay: Antibacterial activity against carbapenem-sensitive Acinetobacter baumannii clinical isolate 19-1 assessed as inhibition of bacterial growth incubated for 16 to 20 hrs by CLSI protocol based broth microdilution method; format: functional; conditions: time 16-20 hrs
Klebsiella pneumoniae [2] = assay: Antibacterial activity against carbapenem-resistant Klebsiella pneumoniae ATCC BAA-1705 assessed as inhibition of bacterial growth incubated for 16 to 20 hrs by CLSI protocol based broth microdilution method; format: functional; conditions: time 16-20 hrs
Escherichia coli [3] = assay: Antibacterial activity against Escherichia coli ATCC BAA-2523 assessed as inhibition of bacterial growth incubated for 16 to 20 hrs by CLSI protocol based broth microdilution method; format: functional; conditions: time 16-20 hrs
Klebsiella pneumoniae [4] = assay: Antibacterial activity against carbapenem-resistant Klebsiella pneumoniae clinical isolate KPN+19-15 assessed as inhibition of bacterial growth incubated for 16 to 20 hrs by CLSI protocol based broth microdilution method; format: functional; conditions: time 16-20 hrs
Pseudomonas aeruginosa [5] = assay: Antibacterial activity against Pseudomonas aeruginosa ATCC 27853 assessed as inhibition of bacterial growth incubated for 16 to 20 hrs by CLSI protocol based broth microdilution method; format: functional; conditions: time 16-20 hrs
Escherichia coli [6] = assay: Antibacterial activity against carbapenem-resistant Escherichia coli ATCC BAA-2340 assessed as inhibition of bacterial growth incubated for 16 to 20 hrs by CLSI protocol based broth microdilution method; format: functional; conditions: time 16-20 hrs
Pseudomonas aeruginosa [7] = assay: Antibacterial activity against carbapenem-resistant Pseudomonas aeruginosa clinical isolate 19-3 assessed as inhibition of bacterial growth incubated for 16 to 20 hrs by CLSI protocol based broth microdilution method; format: functional; conditions: time 16-20 hrs
Acinetobacter baumannii [8] = assay: Antibacterial activity against Acinetobacter baumannii NCTC 13304 (OXA-27) assessed as inhibition of bacterial growth incubated for 16 to 20 hrs by CLSI protocol based broth microdilution method; format: functional; conditions: time 16-20 hrs
[9] = Renal cytotoxicity against HK-2 cells incubated for 72 hrs by CCK8 assay; format: toxicity, cell-based; conditions: human

Row | Structure (SMILES) | MIC (Acinetobacter baumannii [1]) | MIC (Klebsiella pneumoniae [2]) | MIC (Escherichia coli [3]) | MIC (Klebsiella pneumoniae [4]) | MIC (Pseudomonas aeruginosa [5]) | MIC (Escherichia coli [6]) | MIC (Pseudomonas aeruginosa [7]) | MIC (Acinetobacter baumannii [8]) | IC50 at 72 h [9]
1 | CCCCCCCC(=O)N[C@@H](CCN)C(=O)N[C@H](C(=O)N[C@@H](CCN)C(=O)N[C@H]1CCNC(=O)[C@H]([C@@H](C)O)NC(=O)[C@H](CCN)NC(=O)[C@H](CCN)NC(=O)[C@H]([C@@H](C)O)NC(=O)[C@@H](Cc2ccccc2)NC(=O)[C@H](CCN)NC1=O)[C@@H](C)O (Octanoyl-[Dab]T[Dab][Dab][Dab][dF]T[Dab][Dab]T; lactam 4-C) | 0.5 µg/mL (≈ 0.425 µM) | 0.5 µg/mL (≈ 0.425 µM) | ≤ 0.03 µg/mL | ≤ 0.03 µg/mL | 0.5 µg/mL (≈ 0.425 µM) | 0.06 µg/mL (≈ 0.051 µM) | 0.5 µg/mL (≈ 0.425 µM) | 0.25 µg/mL (≈ 0.212 µM) | 
2 | CCCCCCCC(=O)N[C@@H](CCN)C(=O)N[C@H](C(=O)N[C@@H](CCN)C(=O)N[C@H]1CCNC(=O)[C@H]([C@@H](C)O)NC(=O)[C@H](CCN)NC(=O)[C@H](CCN)NC(=O)[C@H]([C@@H](C)O)NC(=O)[C@@H](CC(C)C)NC(=O)[C@H](CCN)NC1=O)[C@@H](C)O (Octanoyl-[Dab]T[Dab][Dab][Dab][dL]T[Dab][Dab]T; lactam 4-C) [listing 1 of 2 here] |  |  |  |  |  |  |  |  | > 500 µg/mL
3 | CCCCCCCC(=O)N[C@@H](CCN)C(=O)N[C@H](C(=O)N[C@@H](CCN)C(=O)N[C@H]1CCNC(=O)[C@H]([C@@H](C)O)NC(=O)[C@H](CCN)NC(=O)[C@H](CCN)NC(=O)[C@H]([C@@H](C)O)NC(=O)[C@@H](CC(C)C)NC(=O)[C@H](CCN)NC1=O)[C@@H](C)O (Octanoyl-[Dab]T[Dab][Dab][Dab][dL]T[Dab][Dab]T; lactam 4-C) [listing 2 of 2 here] | 1 µg/mL (≈ 0.875 µM) | 2 µg/mL (≈ 1.75 µM) | 0.25 µg/mL (≈ 0.219 µM) | 0.25 µg/mL (≈ 0.219 µM) | 1 µg/mL (≈ 0.875 µM) | 0.06 µg/mL (≈ 0.0525 µM) | 0.5 µg/mL (≈ 0.437 µM) | 1 µg/mL (≈ 0.875 µM) | 
4 | CCCCCCCC(=O)N[C@@H](CCN)C(=O)N[C@H](C(=O)N[C@@H](CCN)C(=O)N[C@H]1CCNC(=O)[C@H]([C@@H](C)O)NC(=O)[C@H](CCN)NC(=O)[C@H](CCN)NC(=O)[C@H]([C@@H](C)O)NC(=O)[C@@H](CCCC)NC(=O)[C@H](CCN)NC1=O)[C@@H](C)O (Octanoyl-[Dab]T[Dab][Dab][Dab][dNle]T[Dab][Dab]T; lactam 4-C) [listing 1 of 2 here] |  |  |  |  |  |  |  |  | > 500 µg/mL
5 | CCCCCCCC(=O)N[C@@H](CCN)C(=O)N[C@H](C(=O)N[C@@H](CCN)C(=O)N[C@H]1CCNC(=O)[C@H]([C@@H](C)O)NC(=O)[C@H](CCN)NC(=O)[C@H](CCN)NC(=O)[C@H]([C@@H](C)O)NC(=O)[C@@H](CCCC)NC(=O)[C@H](CCN)NC1=O)[C@@H](C)O (Octanoyl-[Dab]T[Dab][Dab][Dab][dNle]T[Dab][Dab]T; lactam 4-C) [listing 2 of 2 here] | 1 µg/mL (≈ 0.875 µM) | 2 µg/mL (≈ 1.75 µM) | 0.125 µg/mL (≈ 0.109 µM) | 0.125 µg/mL (≈ 0.109 µM) | 1 µg/mL (≈ 0.875 µM) | 0.125 µg/mL (≈ 0.109 µM) | 1 µg/mL (≈ 0.875 µM) | 1 µg/mL (≈ 0.875 µM) | 
6 | CC[C@H](C)CCCCC(=O)N[C@@H](CCN)C(=O)N[C@H](C(=O)N[C@H](CCN)C(=O)N[C@H]1CCNC(=O)[C@H]([C@@H](C)O)NC(=O)[C@H](CCN)NC(=O)[C@H](CCN)NC(=O)[C@H]([C@@H](C)O)NC(=O)[C@@H](Cc2ccccc2)NC(=O)[C@H](CCN)NC1=O)[C@@H](C)O (X1-[Dab]T[dDab][Dab][Dab][dF]T[Dab][Dab]T; lactam 4-C) | ≤ 0.03 µg/mL | ≤ 0.03 µg/mL | ≤ 0.03 µg/mL | ≤ 0.03 µg/mL | 1 µg/mL (≈ 0.839 µM) | ≤ 0.03 µg/mL | 1 µg/mL (≈ 0.839 µM) | ≤ 0.03 µg/mL | 371 µg/mL (≈ 311 µM)
7 | CC(C)CCCCC(=O)N[C@@H](CCN)C(=O)N[C@H](C(=O)N[C@@H](CCN)C(=O)N[C@H]1CCNC(=O)[C@H]([C@@H](C)O)NC(=O)[C@H](CCN)NC(=O)[C@H](CCN)NC(=O)[C@H]([C@@H](C)O)NC(=O)[C@@H](Cc2ccccc2)NC(=O)[C@H](CCN)NC1=O)[C@@H](C)O ({Heptanoyl(6-Me)}-[Dab]T[Dab][Dab][Dab][dF]T[Dab][Dab]T; lactam 4-C) [listing 1 of 2 here] |  |  |  |  |  |  |  |  | > 500 µg/mL
8 | CC(C)CCCCC(=O)N[C@@H](CCN)C(=O)N[C@H](C(=O)N[C@@H](CCN)C(=O)N[C@H]1CCNC(=O)[C@H]([C@@H](C)O)NC(=O)[C@H](CCN)NC(=O)[C@H](CCN)NC(=O)[C@H]([C@@H](C)O)NC(=O)[C@@H](Cc2ccccc2)NC(=O)[C@H](CCN)NC1=O)[C@@H](C)O ({Heptanoyl(6-Me)}-[Dab]T[Dab][Dab][Dab][dF]T[Dab][Dab]T; lactam 4-C) [listing 2 of 2 here] | 0.5 µg/mL (≈ 0.425 µM) | 0.5 µg/mL (≈ 0.425 µM) | 0.06 µg/mL (≈ 0.051 µM) | ≤ 0.03 µg/mL | 1 µg/mL (≈ 0.849 µM) | ≤ 0.03 µg/mL | 1 µg/mL (≈ 0.849 µM) | 0.25 µg/mL (≈ 0.212 µM) | 
9 | CC(C)CCCCC(=O)N[C@@H](CCN)C(=O)N[C@H](C(=O)N[C@@H](CCCN)C(=O)N[C@H]1CCNC(=O)[C@H]([C@@H](C)O)NC(=O)[C@H](CCN)NC(=O)[C@H](CCN)NC(=O)[C@H]([C@@H](C)O)NC(=O)[C@@H](Cc2ccccc2)NC(=O)[C@H](CCN)NC1=O)[C@@H](C)O ({Heptanoyl(6-Me)}-[Dab]T[Orn][Dab][Dab][dF]T[Dab][Dab]T; lactam 4-C) | 0.125 µg/mL (≈ 0.105 µM) | ≤ 0.03 µg/mL | ≤ 0.03 µg/mL | ≤ 0.03 µg/mL | ≤ 0.03 µg/mL | ≤ 0.03 µg/mL | 0.25 µg/mL (≈ 0.21 µM) | 0.06 µg/mL (≈ 0.0504 µM) | > 500 µg/mL
